Molecules are shown by their SMILES. pIC50: −log10 of the molar value. A value given as a limit tells only on which side of the number the result lay.

In general, pIC50 refers to −log10 of the IC50, conventionally taken in molar units.

Experiment [1] deals with T1, c-Met (baculovirus expressed human c-Met kinase domain P948-S1343) (Homo sapiens, UniProt P08581).
T1 construct: human c-Met kinase domain P948-S1343; host or cells: baculovirus expression
Put plainly: c-Met Luciferase-Coupled Chemiluminescent Kinase assay (LCCA).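 Also: kinase activity read as percent ATP left after reaction, by luciferase-luciferin chemiluminescence, with 1 µM ATP and 1 µM poly-EY substrate, 2 h at ambient temperature, 10-point dose-response.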 Type of experiment: biochemical.
Description: Kinase activity and compound inhibition are investigated using one or more of the three assay formats described below. The ATP concentrations for each assay are selected to be close to the Michaelis-Menten constant (KM) for each individual kinase. Dose-response experiments are performed at 10 different inhibitor concentrations in a 384-well plate format. […] Typically H is close to unity. c-Met Assay
c-Met biochemical activity was assessed using a Luciferase-Coupled Chemiluminescent Kinase assay (LCCA) format as described above. Again, kinase activity was measured as the percent ATP remaining following the kinase reaction. Remaining ATP was detected by luciferase-luciferin-coupled chemiluminescence. Specifically, the reaction was initiated by mixing test compounds, 1 μM ATP, 1 μM poly-EY and 10 nM c-Met (baculovirus expressed human c-Met kinase domain P948-S1343) in a 20 uL assay buffer (20 mM Tris-HCL pH7.5, 10 mM MgCl2, 0.02% Triton X-100, 100 mM DTT, 2 mM MnCu2). The mixture is incubated at ambient temperature for 2 hours after which 20 uL luciferase-luciferin mix is added and the chemiluminescent signal read using a Wallac Victor^2 reader.

Experiment [2] deals with T2, KDR (baculovirus expressed human KDR kinase domain D807-V1356) (Homo sapiens, UniProt P35968).
T2 construct: human KDR kinase domain D807-V1356; host or cells: baculovirus expression
Briefly: biochemical.

In experiment [3] the target is T3, Flt-3 (baculovirus expressed human Flt-3 kinase domain R571-S993) (Homo sapiens, UniProt P36888).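 Also: Luciferase-coupled chemiluminescent kinase assay, activity read as percent ATP left after a 3 h reaction at room temperature, ATP near KM, 10-point dose-response.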
T3 construct: human Flt-3 kinase domain R571-S993; host or cells: baculovirus expression
T3 sequence (P36888 571-993): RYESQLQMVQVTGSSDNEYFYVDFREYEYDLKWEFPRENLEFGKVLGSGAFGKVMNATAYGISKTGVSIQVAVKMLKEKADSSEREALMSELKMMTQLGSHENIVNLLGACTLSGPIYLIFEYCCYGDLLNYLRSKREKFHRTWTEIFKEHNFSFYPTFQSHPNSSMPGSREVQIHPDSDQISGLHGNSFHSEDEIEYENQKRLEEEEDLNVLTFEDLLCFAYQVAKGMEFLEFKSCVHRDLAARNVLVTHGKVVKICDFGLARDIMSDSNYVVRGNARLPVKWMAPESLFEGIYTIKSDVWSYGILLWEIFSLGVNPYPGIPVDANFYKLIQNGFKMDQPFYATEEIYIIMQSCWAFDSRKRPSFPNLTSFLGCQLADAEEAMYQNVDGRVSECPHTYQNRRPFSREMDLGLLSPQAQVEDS
Put plainly: biochemical. The conditions noted are these: read-out: flt3 IC50.

T2 sequence (P35968 807-1356): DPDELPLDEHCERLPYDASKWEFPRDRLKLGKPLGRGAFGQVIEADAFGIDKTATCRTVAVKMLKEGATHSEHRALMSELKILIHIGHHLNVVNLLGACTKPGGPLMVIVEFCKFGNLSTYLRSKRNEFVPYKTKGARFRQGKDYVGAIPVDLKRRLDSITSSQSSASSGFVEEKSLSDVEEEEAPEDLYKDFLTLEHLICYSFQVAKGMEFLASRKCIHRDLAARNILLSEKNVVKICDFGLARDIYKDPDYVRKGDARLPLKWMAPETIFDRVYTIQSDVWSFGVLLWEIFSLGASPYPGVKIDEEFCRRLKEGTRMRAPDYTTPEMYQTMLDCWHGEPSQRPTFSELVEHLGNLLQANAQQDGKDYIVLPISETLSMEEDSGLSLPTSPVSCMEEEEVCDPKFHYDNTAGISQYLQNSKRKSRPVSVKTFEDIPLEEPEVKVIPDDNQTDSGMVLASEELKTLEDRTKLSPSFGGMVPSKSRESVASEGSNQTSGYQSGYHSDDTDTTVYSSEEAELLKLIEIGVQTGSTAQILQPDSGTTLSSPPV
T1 sequence (P08581 1011-1343 limits assumed): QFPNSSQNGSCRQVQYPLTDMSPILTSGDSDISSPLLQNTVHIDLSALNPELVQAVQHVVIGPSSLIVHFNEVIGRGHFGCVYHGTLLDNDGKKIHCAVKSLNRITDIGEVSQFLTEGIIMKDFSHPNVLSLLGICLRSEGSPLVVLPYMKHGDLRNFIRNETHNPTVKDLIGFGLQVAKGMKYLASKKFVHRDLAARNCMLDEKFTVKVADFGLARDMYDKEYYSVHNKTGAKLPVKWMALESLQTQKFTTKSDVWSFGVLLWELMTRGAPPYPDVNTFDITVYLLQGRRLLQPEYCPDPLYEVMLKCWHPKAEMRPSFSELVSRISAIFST

`CCN(CC)CCOc1cc2nccc(Oc3ccc(NC(=O)[C@]4(C(=O)Nc5ccc(F)cc5)C[C@@H]4C)cc3F)c2cc1OC` [Example 362, (1R,2S)-N-(4-{[7-{[2-(diethylamino)ethyl]oxy}-6-(methyloxy)quinolin-4-yl]oxy}-3-fluorophenyl)-N′-(4-fluorophenyl)-2-methylcyclopropane-1,1-dicarboxamide]: the pIC50 in experiment [1], in experiment [2] and in experiment [3] was above 7.30 throughout.

Take `COc1cc2c(Oc3ccc(NC(=O)[C@]4(C(=O)Nc5ccc(F)cc5)C[C@@H]4C)cc3F)ccnc2cc1OCCCN1CCNCC1` [Example 364, (1R,2S)-N-[3-fluoro-4-({6-(methyloxy)-7-[(3-piperazin-1-ylpropyl)oxy]quinolin-4-yl}oxy)phenyl]-N′-(4-fluorophenyl)-2-methylcyclopropane-1,1-dicarboxamide]: the negative-log IC50 (pIC50) in experiment [1], in experiment [2] and in experiment [3] was above 7.30 in each case.

As to `COc1cc2c(Oc3ccc(NC(=O)[C@@]4(C(=O)Nc5ccc(F)cc5)[C@H](C)[C@@H]4C)cc3F)ccnc2cc1OCCCN1CCOCC1` [Example 365, (1r,2R,3S)-N-[3-fluoro-4-({6-(methyloxy)-7-[(3-morpholin-4-ylpropyl)oxy]quinolin-4-yl}oxy)phenyl]-N′-(4-fluorophenyl)-2,3-dimethylcyclopropane-1,1-dicarboxamide], the negative logarithm of the IC50 (pIC50) in experiment [1] is above 7.30; in experiment [2], 6.30 to 7.30; in experiment [3] it was 6.30 to 7.30.

As to `COc1cc2c(Oc3ccc(NC(=O)[C@@]4(C(=O)Nc5ccc(F)cc5)[C@H](C)[C@@H]4C)cc3F)ccnc2cc1OCCCN1CCN(C)CC1` [Example 366, (1r,2R,3S)-N-{3-fluoro-4-[(6-(methyloxy)-7-{[3-(4-methylpiperazin-1-yl)propyl]oxy}quinolin-4-yl)oxy]phenyl}-N′-(4-fluorophenyl)-2,3-dimethylcyclopropane-1,1-dicarboxamide], the figures for the pIC50 in experiment [1], in experiment [2] and in experiment [3] were above 7.30, 6.30 to 7.30 and 6.30 to 7.30, respectively.

For `COc1cc2c(Oc3ccc(NC(=O)[C@@]4(C(=O)Nc5ccc(F)cc5)[C@H](C)[C@@H]4C)cc3F)ncnc2cc1OCCCN1CCOCC1` [Example 367, (1r,2R,3S)-N-[3-fluoro-4-({6-(methyloxy)-7-[(3-morpholin-4-ylpropyl)oxy]quinazolin-4-yl}oxy)phenyl]-N′-(4-fluorophenyl)-2,3-dimethylcyclopropane-1,1-dicarboxamide], the pIC50 is 6.30 to 7.30 in experiment [1], above 7.30 in experiment [2] and 6.30 to 7.30 in experiment [3].

With `COc1cc2c(Oc3ccc(NC(=O)[C@@]4(C(=O)Nc5ccc(F)cc5)[C@H](C)[C@@H]4C)cc3F)ncnc2cc1OCCCN1CCN(C)CC1` [Example 368, (1r,2R,3S)-N-{3-fluoro-4-[(6-(methyloxy)-7-{[3-(4-methylpiperazin-1-yl)propyl]oxy}quinazolin-4-yl)oxy]phenyl}-N′-(4-fluorophenyl)-2,3-dimethylcyclopropane-1,1-dicarboxamide], the pIC50 in experiment [1] was above 7.30; in experiment [2], above 7.30; in experiment [3], 6.30 to 7.30.

For `COc1cc2c(Oc3ccc(NC(=O)C4(C(=O)Nc5ccc(F)cc5)CCC4)cc3F)ncnc2cc1OCCCN1CCOCC1` [Example 369, N-[3-fluoro-4-({6-(methyloxy)-7-[(3-morpholin-4-ylpropyl)oxy]quinazolin-4-yl}oxy)phenyl]-N′-(4-fluorophenyl)cyclobutane-1,1-dicarboxamide], the negative logarithm of the IC50 (pIC50) in experiment [1] was 6.30 to 7.30; in experiment [2], above 7.30; in experiment [3], 6.30 to 7.30.

`COc1cc2c(Oc3ccc(NC(=O)C4(C(=O)Nc5ccc(F)cc5)[C@H](C)[C@H]4C)cc3F)ccnc2cc1OCCCN1CCOCC1` (stereo partly drawn) [Example 370, (2R,3R)-N-[3-fluoro-4-({6-(methyloxy)-7-[(3-morpholin-4-ylpropyl)oxy]quinolin-4-yl}oxy)phenyl]-N′-(4-fluorophenyl)-2,3-dimethylcyclopropane-1,1-dicarboxamide]: the results for the pIC50 in experiment [1], in experiment [2] and in experiment [3] were above 7.30, above 7.30 and 6.30 to 7.30, respectively.

In the case of `CCN(CC)CCCOc1cc2nccc(Oc3ccc(NC(=O)C4(C(=O)Nc5ccc(F)cc5)[C@H](C)[C@H]4C)cc3F)c2cc1OC` (stereo partly drawn) [Example 371, (2R,3R)-N-(4-{[7-{[3-(diethylamino)propyl]oxy}-6-(methyloxy)quinolin-4-yl]oxy}-3-fluorophenyl)-N′-(4-fluorophenyl)-2,3-dimethylcyclopropane-1,1-dicarboxamide], the negative-log IC50 (pIC50) in experiment [1] is above 7.30; in experiment [2] it was above 7.30; in experiment [3], 6.30 to 7.30.

Regarding `CCN(CC)CCCOc1cc2nccc(Oc3ccc(NC(=O)C4(C(=O)Nc5ccc(F)cc5)CC4(C)C)cc3F)c2cc1OC` (stereo not drawn) [Example 372, N-(4-{[7-{[3-(diethylamino)propyl]oxy}-6-(methyloxy)quinolin-4-yl]oxy}-3-fluorophenyl)-N′-(4-fluorophenyl)-2,2-dimethylcyclopropane-1,1-dicarboxamide], the negative-log IC50 (pIC50) in experiment [1] was above 7.30; in experiment [2], above 7.30; in experiment [3] it was 6.30 to 7.30.

Regarding `COc1cc2c(Oc3ccc(NC(=O)C4(C(=O)Nc5ccc(F)cc5)CC4(C)C)cc3F)ncnc2cc1OCCCN1CCOCC1` (stereo not drawn) [Example 373, N-[3-fluoro-4-({6-(methyloxy)-7-[(3-morpholin-4-ylpropyl)oxy]quinazolin-4-yl}oxy)phenyl]-N′-(4-fluorophenyl)-2,2-dimethylcyclopropane-1,1-dicarboxamide], the pIC50 in experiment [1] is above 7.30; in experiment [2] it was above 7.30; in experiment [3] it was 5.30 to 6.30.

Turning to `CCN(CC)CCCOc1cc2nccc(Oc3ccc(NC(=O)[C@@]4(C(=O)Nc5ccc(F)cc5)[C@H](C)[C@@H]4C)cc3F)c2cc1OC` [Example 374, (1r,2R,3S)-N-(4-{[7-{[3-(diethylamino)propyl]oxy}-6-(methyloxy)quinolin-4-yl]oxy}-3-fluorophenyl)-N′-(4-fluorophenyl)-2,3-dimethylcyclopropane-1,1-dicarboxamide], the negative logarithm of the IC50 (pIC50) is above 7.30 in experiment [1], 6.30 to 7.30 in experiment [2] and 6.30 to 7.30 in experiment [3].

In the case of `CCN(CC)CCOc1cc2nccc(Oc3ccc(NC(=O)C4(C(=O)Nc5ccc(F)cc5)CC4(C)C)cc3F)c2cc1OC` (stereo not drawn) [Example 375, N-(4-{[7-{[2-(diethylamino)ethyl]oxy}-6-(methyloxy)quinolin-4-yl]oxy}-3-fluorophenyl)-N′-(4-fluorophenyl)-2,2-dimethylcyclopropane-1,1-dicarboxamide], the pIC50 was above 7.30 in experiment [1], above 7.30 in experiment [2] and 5.30 to 6.30 in experiment [3].

Take `CCN(CC)CCOc1cc2nccc(Oc3ccc(NC(=O)[C@@]4(C(=O)Nc5ccc(F)cc5)[C@H](C)[C@@H]4C)cc3F)c2cc1OC` [Example 376, (1r,2R,3S)-N-(4-{[7-{[2-(diethylamino)ethyl]oxy}-6-(methyloxy)quinolin-4-yl]oxy}-3-fluorophenyl)-N′-(4-fluorophenyl)-2,3-dimethylcyclopropane-1,1-dicarboxamide]: the negative logarithm of the IC50 (pIC50) in experiment [1] is above 7.30; in experiment [2], 6.30 to 7.30; in experiment [3] it was 6.30 to 7.30.

Turning to `COc1cc2c(Oc3ccc(NC(=O)C4(C(=O)Nc5ccc(F)cc5)CC4(C)C)cc3F)ccnc2cc1OCCCN1CCOCC1` (stereo not drawn) [Example 377, N-[3-fluoro-4-({6-(methyloxy)-7-[(3-morpholin-4-ylpropyl)oxy]quinolin-4-yl}oxy)phenyl]-N′-(4-fluorophenyl)-2,2-dimethylcyclopropane-1,1-dicarboxamide], the negative-log IC50 (pIC50) in experiment [1] is above 7.30; in experiment [2], above 7.30; in experiment [3], 6.30 to 7.30.

Consider `CCN(CC)CCOc1cc2ncnc(Oc3ccc(NC(=O)C4(C(=O)Nc5ccc(F)cc5)CC4(C)C)cc3F)c2cc1OC` (stereo not drawn) [Example 378, N-(4-{[7-{[2-(diethylamino)ethyl]oxy}-6-(methyloxy)quinazolin-4-yl]oxy}-3-fluorophenyl)-N′-(4-fluorophenyl)-2,2-dimethylcyclopropane-1,1-dicarboxamide], for which the pIC50 is above 7.30 in experiment [1], 6.30 to 7.30 in experiment [2] and 5.30 to 6.30 in experiment [3].

On to `CCN(CC)CCCOc1cc2ncnc(Oc3ccc(NC(=O)C4(C(=O)Nc5ccc(F)cc5)CC4(C)C)cc3F)c2cc1OC` (stereo not drawn) [Example 379, N-(4-{[7-{[3-(diethylamino)propyl]oxy}-6-(methyloxy)quinazolin-4-yl]oxy}-3-fluorophenyl)-N′-(4-fluorophenyl)-2,2-dimethylcyclopropane-1,1-dicarboxamide], for which the pIC50 in experiment [1] is above 7.30; in experiment [2], above 7.30; in experiment [3], 5.30 to 6.30.

On to `CCN(CC)CCCOc1cc2ncnc(Oc3ccc(NC(=O)C4(C(=O)Nc5ccc(F)cc5)CCC4)cc3F)c2cc1OC` [Example 380, N-(4-{[7-{[3-(diethylamino)propyl]oxy}-6-(methyloxy)quinazolin-4-yl]oxy}-3-fluorophenyl)-N′-(4-fluorophenyl)cyclobutane-1,1-dicarboxamide], for which the values for the negative-log IC50 (pIC50) in experiment [1], in experiment [2] and in experiment [3] were above 7.30, above 7.30 and 6.30 to 7.30, respectively.

These data come from US8476298B2 (Exelixis, Inc., priority 2003, dated 2013).
